Data on two compounds can be found in US9622472B2, “Molecules that induce disease resistance in plants” (The Regents of the University of California, priority 2013, dated 2017).

The subject of assay [1] is virulent Peronospora isolate Noco2. The assay can be described thus: Noco2 spore inhibition assay in soil-grown Col-0 seedlings. Format: in vivo, Hyaloperonospora arabidopsidis (Peronospora). As for the experimental part:
FIG. 1. Phenyl-imino-methyl-phenol derivatives (PMPs) constitute a large class of new synthetic elicitors. A: Structures of 20 PMP derivatives that were identified by high throughput screening as able to promote expression with the CaBP22 reporter assay. B. CMP199 was further analyzed in the Noco2 spore inhibition assay. Three-week-old soil-grown Col-0 seedlings were spray-infected 24 h after treating with varying concentrations of each synthetic elicitor and then assayed at 7 dpi for spore growth. 100% inhibition=0 spores. The assay was repeated three times with similar results, and the average of those three replicates is shown. DCA=3-5-dicholoroanthranlilic acid; HTC=2-(5-bromo-2-hydroxy-phenyl)-thiazolidine-4-carboxylic acid.
CMP199 (FIG. 1A) was selected for further study to determine whether CMP199 could induce pathogen resistance in soil-grown plants. […] To determine if CMP199 differs from other synthetic elicitors, Col-0 seedlings were treated with DCA or HTC at the indicated concentrations and compared.

For assay [2], the system named is pathogen-responsive CaBP22^−333::GUS reporter gene. To be noted: transgenic Arabidopsis; reported in Knoth et al. (2009); cited from earlier work.
Assay [3] deals with Hyaloperonospora arabidopsidis (Peronospora). To be noted: Arabidopsis; Knoth et al. (2009); cited from earlier work.
In assay [4] the test system is Pseudomonas syringae. To be noted: Arabidopsis; Knoth et al. (2009); cited from earlier work.

Some results are limits rather than exact numbers.

Take `COc1cccc(N=Cc2cc(Cl)cc(Cl)c2O)c1` [CMP199, 2,4-dichloro-6-[((3-methoxy-phenyl)imino)methyl]-phenol]: the “induction of disease resistance” value in assay [1] (A. thaliana) is listed as “able to induce disease resistance in A. thaliana at very low concentration”. Besides, the “inhibition of Noco2 spores, concentration compared with other synthetic elicitors” value in assay [1] (Col-0 seedlings, spray-infected 24 h after treating, assayed at 7 dpi, FIG. 1B) is on record as “much lower concentration than DCA or HTC”. Besides, the “concentration giving significantly reduced numbers of Noco2 spores” value in assay [1] (Col-0 sprayed prior to infection, spores 7 days post infection) is no more than 1 µM.
For the compound `Nc1c(Cl)cc(Cl)cc1C(=O)O` [DCA, 3-5-dicholoroanthranlilic acid], the “induction of pCaBP22^−333::GUS reporter gene” value in assay [2] was “induce”. For the same compound, the disease resistance triggered entry is “fast, strong and transient disease resistance” in assay [3]; “fast, strong and transient disease resistance” in assay [4].
